Measured values as given in patent US20230265116A1, “DEGRADATION OF (EGFR) BY CONJUGATION OF EGFR INHIBITORS WITH E3 LIGASE LIGAND AND METHODS OF USE” (BEIGENE, LTD., priority 2020, published 2023).
Where two headings read alike, the source gives them in different places.

How the values were obtained:
[1] = molecular target: T1, EGFR L858R/T790M/C797S (BaF3-LTC cells) (Homo sapiens, UniProt P00533, C797S/L858R/T790M); experiment: EGFR degradation HTRF assay, BaF3-LTC cells; format: cell-based
T1 construct: expressed in transfected cells; host or cells: BaF3
T1 sequence (P00533 25-1210 T790M/C797S/L858R): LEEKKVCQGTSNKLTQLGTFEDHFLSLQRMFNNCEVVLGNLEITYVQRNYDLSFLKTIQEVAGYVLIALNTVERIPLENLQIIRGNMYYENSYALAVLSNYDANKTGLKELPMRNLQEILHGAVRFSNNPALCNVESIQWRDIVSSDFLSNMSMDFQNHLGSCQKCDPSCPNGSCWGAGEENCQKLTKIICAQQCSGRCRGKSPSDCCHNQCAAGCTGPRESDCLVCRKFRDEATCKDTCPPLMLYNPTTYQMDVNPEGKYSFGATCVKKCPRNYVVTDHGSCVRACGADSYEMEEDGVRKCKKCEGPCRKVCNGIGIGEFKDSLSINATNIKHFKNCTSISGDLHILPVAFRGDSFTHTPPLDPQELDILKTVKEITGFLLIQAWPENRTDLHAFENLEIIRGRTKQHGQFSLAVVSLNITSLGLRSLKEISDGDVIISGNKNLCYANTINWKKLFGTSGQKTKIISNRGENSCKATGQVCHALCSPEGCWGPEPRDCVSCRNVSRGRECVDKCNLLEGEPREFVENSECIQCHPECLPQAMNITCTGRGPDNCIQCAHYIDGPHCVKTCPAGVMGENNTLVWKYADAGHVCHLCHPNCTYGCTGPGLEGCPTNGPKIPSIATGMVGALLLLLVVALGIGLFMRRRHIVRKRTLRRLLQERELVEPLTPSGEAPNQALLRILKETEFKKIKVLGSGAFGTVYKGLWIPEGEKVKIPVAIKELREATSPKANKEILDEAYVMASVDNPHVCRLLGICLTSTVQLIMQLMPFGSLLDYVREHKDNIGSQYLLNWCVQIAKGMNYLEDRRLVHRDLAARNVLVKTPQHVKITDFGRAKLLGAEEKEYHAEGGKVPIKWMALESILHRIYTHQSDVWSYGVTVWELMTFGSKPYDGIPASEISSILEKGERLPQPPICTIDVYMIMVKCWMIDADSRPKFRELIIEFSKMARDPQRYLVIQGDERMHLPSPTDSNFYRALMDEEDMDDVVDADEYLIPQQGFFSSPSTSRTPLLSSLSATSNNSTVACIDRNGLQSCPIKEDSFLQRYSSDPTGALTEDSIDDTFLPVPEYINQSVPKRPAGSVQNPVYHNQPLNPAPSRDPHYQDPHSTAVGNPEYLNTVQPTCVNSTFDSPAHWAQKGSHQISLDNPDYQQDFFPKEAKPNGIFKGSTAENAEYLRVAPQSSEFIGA
How it was run: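 Cells treated 16 h at 37 °C, 5% CO2 in medium with 0.2% DMSO; top final concentration 10 uM, 5-fold dilution, 8 doses. Lysates read by HTRF (665/620 nm); degradation % versus DMSO high control, DC50 from four-parameter fit, Dmax as maximal degradation.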

[2] = system: EGFR Del19/T790M/C797S (H1975-clone #28); experiment: EGFR degradation HTRF assay, H1975-clone #28 DTC cells; format: cell-based
How it was run: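 The test uses H1975 clonal lines carrying lentiviral mutant EGFR with endogenous copies removed, treated 16h at 37° C., 5% CO2. EGFR left in the lysate is quantified by HTRF, and DC50 is derived from an 8-dose curve starting at 10 uM final.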

[3] = BaF3-LTC cells; EGFR degradation, IC50 (DC50) from curve fit; read-out: DC50(nM) BaF3-LTC
[4] = BaF3-LTC cells; maximum percentage of inhibition (degradation); read-out: Dmax (%) BaF3-LTC
[5] = H1975 # 28 DTC cells; EGFR degradation, IC50 (DC50) from curve fit; read-out: DC50(nM) H1975 # 28 DTC
[6] = H1975 # 28 DTC cells; maximum percentage of inhibition (degradation)
[7] = read-out: DC50(nM) BaF3-LTC; BaF3-LTC cells; EGFR degradation, IC50 (DC50) from curve fit
[8] = read-out: Dmax (%) BaF3-LTC, BaF3-LTC cells; maximum percentage of inhibition (degradation)
[9] = read-out: DC50(nM) H1975 # 28 DTC; H1975 # 28 DTC cells; EGFR degradation, IC50 (DC50) from curve fit

Row | Compound | DC50 [1, 3] [nM] | Dmax [1, 4] [%] | DC50 [2, 5] [nM] | Dmax (%) H1975 # 28 DTC [2, 6] [%] | DC50 [1, 7] [nM] | Dmax [1, 8] [%] | DC50 [2, 9] [nM]
1 | CCOc1cc(N2CCC(N3CCN(CCCc4cc(C)cc5c4oc(=O)n5C4CCC(=O)NC4=O)CC3)CC2)c(CC)cc1Nc1ncc(Br)c(Nc2ccc3nc(CC)ccc3c2P(C)(C)=O)n1 (centres unmarked) [Example 636, 3-(7-(3-(4-(1-(4-((5-bromo-4-((5-(dimethylphosphoryl)-2-ethylquinolin-6-yl)amino)pyrimidin-2-yl)amino)-5-ethoxy-2-ethylphenyl)piperidin-4-yl)piperazin-1-yl)propyl)-5-methyl-2-oxobenzo[d]oxazol-3(2H)-yl)piperidine-2,6-dione] | 11 | 92.3 | 1.52 | 79.04 |  |  | 
2 | CCc1cc(Nc2ncc(Br)c(Nc3ccc4nc(C)ncc4c3P(C)(C)=O)n2)c(OC)cc1N1CCC(N2CCN(CCc3cc(F)c([C@H]4CCC(=O)NC4=O)c(F)c3)CC2)CC1 [Example 739, (R)-3-(4-(2-(4-(1-(4-((5-bromo-4-((5-(dimethylphosphoryl)-2-methylquinazolin-6-yl)amino)pyrimidin-2-yl)amino)-2-ethyl-5-methoxyphenyl)piperidin-4-yl)piperazin-1-yl)ethyl)-2,6-difluorophenyl)piperidine-2,6-dione] | 2.89 |  | 0.614 | 85.55 |  |  | 
3 | CCOc1cc(N2CCC(N3CCN(CCc4cccc5c4oc(=O)n5C4CCC(=O)NC4=O)CC3)CC2)c(CC)cc1Nc1ncc(Br)c(Nc2ccc3c(=O)n(CC)ncc3c2P(C)(C)=O)n1 (centres unmarked) [Example 644, 3-(7-(2-(4-(1-(4-((5-bromo-4-((5-(dimethylphosphoryl)-2-ethyl-1-oxo-1,2-dihydrophthalazin-6-yl)amino)pyrimidin-2-yl)amino)-5-ethoxy-2-ethylphenyl)piperidin-4-yl)piperazin-1-yl)ethyl)-2-oxobenzo[d]oxazol-3(2H)-yl)piperidine-2,6-dione] | 5.12 | 92.6 | 0.829 | 86.29 |  |  | 
4 | CCOc1cc(N2CCC(N3CCN(CCc4c(F)ccc5c4n(C)c(=O)n5C4CCC(=O)NC4=O)CC3)CC2)c(CC)cc1Nc1ncc(Br)c(Nc2ccc3nc(CC)ccc3c2P(C)(C)=O)n1 (centres unmarked) [Example 648, 3-(4-(2-(4-(1-(4-((5-bromo-4-((5-(dimethylphosphoryl)-2-ethylquinolin-6-yl)amino)pyrimidin-2-yl)amino)-5-ethoxy-2-ethylphenyl)piperidin-4-yl)piperazin-1-yl)ethyl)-5-fluoro-3-methyl-2-oxo-2,3-dihydro-1H-benzo[d]imidazol-1-yl)piperidine-2,6-dione] | 15.3 | 95.8 | 4.01 | 81.9 |  |  | 
5 | CCOc1cc(N2CCC(N3CCN(C(=O)[C@@H]4CCN(c5cc(F)c([C@H]6CCC(=O)NC6=O)c(F)c5)C4)CC3)CC2)c(CC)cc1Nc1ncc(Br)c(Nc2ccc3c(=O)n(C)ncc3c2P(C)(C)=O)n1 [Example 530, (R)-3-(4-((R)-3-(4-(1-(4-((5-bromo-4-((5-(dimethylphosphoryl)-2-methyl-1-oxo-1,2-dihydrophthalazin-6-yl)amino)pyrimidin-2-yl)amino)-5-ethoxy-2-ethylphenyl)piperidin-4-yl)piperazine-1-carbonyl)pyrrolidin-1-yl)-2,6-difluorophenyl)piperidine-2,6-dione] | 5.05 | 94.6 | 1.87 | 82.54 |  |  | 
6 | CCOc1cc(N2CCC(N3CCN(CCCc4cc(F)cc5c4oc(=O)n5C4CCC(=O)NC4=O)CC3)CC2)c(CC)cc1Nc1ncc(Br)c(Nc2ccc3nc(CC)ncc3c2P(C)(C)=O)n1 (centres unmarked) [Example 564, 3-(7-(3-(4-(1-(4-((5-bromo-4-((5-(dimethylphosphoryl)-2-ethylquinazolin-6-yl)amino)pyrimidin-2-yl)amino)-5-ethoxy-2-ethylphenyl)piperidin-4-yl)piperazin-1-yl)propyl)-5-fluoro-2-oxobenzo[d]oxazol-3(2H)-yl)piperidine-2,6-dione] |  |  |  | 81.87 | 7.34 | 93.9 | 1.04
7 | CCOc1cc(N2CCC(N3CCN(CCc4c(F)cc(F)c5c4oc(=O)n5C4CCC(=O)NC4=O)CC3)CC2)c(CC)cc1Nc1ncc(Br)c(Nc2ccc3nc(CC)ccc3c2P(C)(C)=O)n1 (centres unmarked) [Example 731, 3-(7-(2-(4-(1-(4-((5-bromo-4-((5-(dimethylphosphoryl)-2-ethylquinolin-6-yl)amino)pyrimidin-2-yl)amino)-5-ethoxy-2-ethylphenyl)piperidin-4-yl)piperazin-1-yl)ethyl)-4,6-difluoro-2-oxobenzo[d]oxazol-3(2H)-yl)piperidine-2,6-dione] | 42.5 |  | 4.55 | 93.44 |  |  | 
8 | CCc1ncc2c(P(C)(C)=O)c(Nc3nc(Nc4cc(CC)c(N5CCC(N6CCN(C(=O)Cc7ccc8c(c7)oc(=O)n8C7CCC(=O)NC7=O)CC6)CC5)cc4OC)ncc3Br)ccc2n1 (centres unmarked) [Example 646, 3-(6-(2-(4-(1-(4-((5-bromo-4-((5-(dimethylphosphoryl)-2-ethylquinazolin-6-yl)amino)pyrimidin-2-yl)amino)-2-ethyl-5-methoxyphenyl)piperidin-4-yl)piperazin-1-yl)-2-oxoethyl)-2-oxobenzo[d]oxazol-3(2H)-yl)piperidine-2,6-dione] |  |  |  | 74.64 | 6.2 | 94.5 | 0.627

Now from value to compound, other results behind:

Row | DC50 [1, 3] [nM] | Dmax [1, 4] [%] | DC50 [2, 5] [nM] | Compound | Dmax (%) H1975 # 28 DTC [2, 6] [%] | DC50 [1, 7] [nM] | Dmax [1, 8] [%] | DC50 [2, 9] [nM]
9 | 13.2 | 82.6 | 1.26 | CCOc1cc(N2CCC(N3CCN(CCc4c(C)c(F)cc5c4oc(=O)n5C4CCC(=O)NC4=O)CC3)CC2)c(CC)cc1Nc1ncc(Br)c(Nc2cc(F)c3nc(CC)ccc3c2P(C)(C)=O)n1 (centres unmarked) [Example 593, 3-(7-(2-(4-(1-(4-((5-bromo-4-((5-(dimethylphosphoryl)-2-ethyl-8-fluoroquinolin-6-yl)amino)pyrimidin-2-yl)amino)-5-ethoxy-2-ethylphenyl)piperidin-4-yl)piperazin-1-yl)ethyl)-5-fluoro-6-methyl-2-oxobenzo[d]oxazol-3(2H)-yl)piperidine-2,6-dione] | 76.9 |  |  | 
10 | 14.1 | 92.3 | 1.36 | CCOc1cc(N2CCC(N3CCN(C[C@H]4CCN(c5cccc6c5oc(=O)n6C5CCC(=O)NC5=O)C4)CC3)CC2)c(CC)cc1Nc1ncc(Br)c(Nc2ccc3c(=O)n(CC)ncc3c2P(C)(C)=O)n1 (stereo partly drawn) [Example 560, 3-(7-((R)-3-((4-(1-(4-((5-bromo-4-((5-(dimethylphosphoryl)-2-ethyl-1-oxo-1,2-dihydrophthalazin-6-yl)amino)pyrimidin-2-yl)amino)-5-ethoxy-2-ethylphenyl)piperidin-4-yl)piperazin-1-yl)methyl)pyrrolidin-1-yl)-2-oxobenzo[d]oxazol-3(2H)-yl)piperidine-2,6-dione] | 80.68 |  |  | 
11 | 8.68 | 85.8 | 0.609 | CCc1cc(Nc2ncc(Br)c(Nc3ccc4nc(C)sc4c3P(C)(C)=O)n2)c(OC)cc1N1CCC(N2CCN(CCc3cc(F)c([C@H]4CCC(=O)NC4=O)c(F)c3)CC2)CC1 [Example 661, (R)-3-(4-(2-(4-(1-(4-((5-bromo-4-((7-(dimethylphosphoryl)-2-methylbenzo[d]thiazol-6-yl)amino)pyrimidin-2-yl)amino)-2-ethyl-5-methoxyphenyl)piperidin-4-yl)piperazin-1-yl)ethyl)-2,6-difluorophenyl)piperidine-2,6-dione] | 87.94 |  |  | 
12 | 3.37 | 88.3 | 0.634 | CCc1cc(Nc2ncc(Br)c(Nc3ccc4nc(C)ccc4c3P(C)(C)=O)n2)c(OC)cc1N1CCC(N2CCN(C(=O)Cc3cc(F)c([C@H]4CCC(=O)NC4=O)c(F)c3)CC2)CC1 [Example 670, (R)-3-(4-(2-(4-(1-(4-((5-bromo-4-((5-(dimethylphosphoryl)-2-methylquinolin-6-yl)amino)pyrimidin-2-yl)amino)-2-ethyl-5-methoxyphenyl)piperidin-4-yl)piperazin-1-yl)-2-oxoethyl)-2,6-difluorophenyl)piperidine-2,6-dione] | 83.95 |  |  | 
13 | 12.5 | 83.7 | 1.18 | CCOc1cc(N2CCC(N3CCN(CCc4ccc(F)c5c4oc(=O)n5C4CCC(=O)NC4=O)CC3)CC2)c(CC)cc1Nc1ncc(Br)c(Nc2cc(F)c3nc(CC)ccc3c2P(C)(C)=O)n1 (centres unmarked) [Example 592, 3-(7-(2-(4-(1-(4-((5-bromo-4-((5-(dimethylphosphoryl)-2-ethyl-8-fluoroquinolin-6-yl)amino)pyrimidin-2-yl)amino)-5-ethoxy-2-ethylphenyl)piperidin-4-yl)piperazin-1-yl)ethyl)-4-fluoro-2-oxobenzo[d]oxazol-3(2H)-yl)piperidine-2,6-dione] | 82.2 |  |  | 
